Values quoted from earlier work in PMC7610473, “Axial functionalisation of photoactive diazido platinum(iv) anticancer complexes” (Inorganic chemistry frontiers, 2020).

Parameters: method as in PMID 9399704

In the case of O=C(O)c1cc2ccc(O)cc2oc1=O [7-hydroxycoumarin-3 carboxylic acid], the pK a is given as 1.98.
